Measurements reported in US11584748B2, “Spirocyclic compounds” (priority 2018, dated 2023).

What follows are compounds tested against hCereblon(M1-L442)_hDDB1(M1-H1140) (Homo sapiens (Human), UniProt Q96SW2) (assay: Fluorescence direct binding (tryptophan fluorescence titration)). Conditions: 20° C., excitation 280 nm, emission 340 nm, 50 mM Hepes 7.4 200 mM NaCl; read-out: Fluorescence h-Cereblon_DDB1 Mean Kd_EQ.
Sequence of hCereblon(M1-L442)_hDDB1(M1-H1140) (Q96SW2 whole entry, looked up): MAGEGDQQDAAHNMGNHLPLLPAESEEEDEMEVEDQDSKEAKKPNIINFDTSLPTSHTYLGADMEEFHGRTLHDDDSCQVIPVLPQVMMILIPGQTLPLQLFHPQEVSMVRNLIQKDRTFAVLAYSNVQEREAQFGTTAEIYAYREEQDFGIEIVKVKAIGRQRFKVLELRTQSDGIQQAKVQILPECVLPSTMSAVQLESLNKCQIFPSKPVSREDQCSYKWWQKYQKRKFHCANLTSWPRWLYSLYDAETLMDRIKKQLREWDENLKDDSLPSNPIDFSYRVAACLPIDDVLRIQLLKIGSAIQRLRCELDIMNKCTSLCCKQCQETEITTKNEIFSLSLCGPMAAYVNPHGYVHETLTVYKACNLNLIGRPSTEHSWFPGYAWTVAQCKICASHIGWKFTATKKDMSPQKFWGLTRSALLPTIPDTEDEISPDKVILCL
Sequence of hCereblon(M1-L442)_hDDB1(M1-H1140) (Q16531 whole entry partner, looked up): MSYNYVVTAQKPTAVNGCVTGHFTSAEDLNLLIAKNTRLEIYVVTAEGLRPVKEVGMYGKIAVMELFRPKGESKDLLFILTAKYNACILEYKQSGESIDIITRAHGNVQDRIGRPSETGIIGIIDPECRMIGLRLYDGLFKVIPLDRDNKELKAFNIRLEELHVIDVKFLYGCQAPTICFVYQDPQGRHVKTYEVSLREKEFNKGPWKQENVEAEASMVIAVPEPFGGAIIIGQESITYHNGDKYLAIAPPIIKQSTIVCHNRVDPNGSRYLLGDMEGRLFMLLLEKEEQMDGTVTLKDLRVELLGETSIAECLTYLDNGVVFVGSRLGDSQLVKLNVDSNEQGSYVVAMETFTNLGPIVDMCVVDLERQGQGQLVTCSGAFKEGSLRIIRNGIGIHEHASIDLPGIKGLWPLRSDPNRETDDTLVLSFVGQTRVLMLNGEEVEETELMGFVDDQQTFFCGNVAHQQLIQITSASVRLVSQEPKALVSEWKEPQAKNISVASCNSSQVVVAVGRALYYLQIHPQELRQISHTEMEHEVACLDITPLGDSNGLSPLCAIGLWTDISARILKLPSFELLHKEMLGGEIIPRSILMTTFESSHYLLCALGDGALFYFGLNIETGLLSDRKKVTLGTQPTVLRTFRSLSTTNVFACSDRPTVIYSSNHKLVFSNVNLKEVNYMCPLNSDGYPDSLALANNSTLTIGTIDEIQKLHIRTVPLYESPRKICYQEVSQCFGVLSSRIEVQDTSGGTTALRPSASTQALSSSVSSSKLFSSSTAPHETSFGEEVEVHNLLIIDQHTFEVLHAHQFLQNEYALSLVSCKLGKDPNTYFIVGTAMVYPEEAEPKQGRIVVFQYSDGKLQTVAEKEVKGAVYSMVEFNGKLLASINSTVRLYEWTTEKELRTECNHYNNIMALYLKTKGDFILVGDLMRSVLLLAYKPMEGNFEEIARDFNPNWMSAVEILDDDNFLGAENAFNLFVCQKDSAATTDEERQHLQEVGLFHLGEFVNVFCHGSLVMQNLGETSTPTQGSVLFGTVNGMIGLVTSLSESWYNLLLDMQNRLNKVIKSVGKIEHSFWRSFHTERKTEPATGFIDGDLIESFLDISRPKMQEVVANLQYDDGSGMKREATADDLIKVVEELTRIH
Method: Fluorescence Direct Binding Protocol
Determination of the affinities of compounds to protein containing one or more tryptophan is measurable by monitoring the fluorescence emission in direct mode. The measurements, depending on the protein available amounts, were performed either manually in a cuvette on ISS-PCI photon counting spectrofluorometer or automatically in well plates on a fluorescence plate reader device. Fluorescence titrations were performed at 20° C. in the chosen binding assay buffer by using a defined constant protein concentration against ligand concentration variations. Small aliquots of known ligand concentration solubilized in DMSO were added and the fluorescence, excited at 280 nm, was recorded at 340 nm.

| Compound | Kd [nM] |
| --- | --- |
| O=C1CCC2(CCN(c3nc4cc([N+](=O)[O-])ccc4[nH]3)C2)C(=O)N1 (single isomer, unassigned) [Example 33, 2-(5-nitro-1H-benzo[d]imidazol-2-yl)-2,7-diazaspiro[4.5] decane-6,8-dione] | < 1 |
| O=C1CCC2(CCN(c3nc4cc([N+](=O)[O-])ccc4[nH]3)C2)C(=O)N1 (single isomer, unassigned) [Example 34, 2-(5-nitro-1H-benzo[d]imidazol-2-yl)-2,7-diazaspiro[4.5] decane-6,8-dione] | 5 |
| O=C1CC2(CCN(C(=O)[C@H]3CCCc4ccccc43)CC2)C(=O)N1 (single isomer, unassigned) [Example 77] | 6 |
| O=C1CC2(CCN(C(=O)[C@@H]3CCCc4ccccc43)CC2)C(=O)N1 (single isomer, unassigned) [Example 78] | 4 |
| Cc1sc2c(c1C)C(c1ccc(Cl)cc1)=NC(CC(=O)NCCCCCCCC(=O)Nc1cccc(C(=O)N3CCC4(CCC(=O)NC4=O)C3)c1)c1nnc(C)n1-2 (stereo in doubt) [Example 57, 8-(2-((R)-4-(4-chlorophenyl)-2,3,9-trimethyl-6H-thieno[3,2-f] [1,2,4]triazolo [4,3-a] [1,4]diazepin-6-yl)acetamido)-N-(3-(6,8-dioxo-2,7-diazaspiro[4.5]decane-2-carbonyl)phenyl) octanamide] | 106 |
| O=C1CCC2(CCNC2)C(=O)N1 (stereo not shown) [Example 1, 2,7-diazaspiro [4.5]decane-6,8-dione] | 84 |
| CN1CC2(CCC(=O)NC2=O)CC1=O (stereo not shown) [Example 2, 2-methyl-2,7-diazaspiro[4.5] decane-3,6,8-trione] | 159 |
| COC(=O)c1ccc(N2CCC3(CCC(=O)NC3=O)C2)nc1 (stereo not shown) [Example 6, methyl 6-(6,8-dioxo-2,7-diazaspiro[4.5]decan-2-yl) nicotinate] | < 1 |
| O=C1CCC2(CCN(c3nc4cc([N+](=O)[O-])ccc4[nH]3)C2)C(=O)N1 (stereo not shown) [Example 9, 2-(5-nitro-1H-benzo[d]imidazol-2-yl)-2,7-diazaspiro [4.5]decane-6,8-dione] | 8 |
| O=C1CCC2(CCN(c3nc4ccccc4s3)C2)C(=O)N1 (stereo not shown) [Example 12, 2-(benzo[d]thiazol-2-yl)-2,7-diazaspiro [4.5]decane-6,8-dione] | 1 |
| COC(=O)c1cccc2nc(N3CCC4(CCC(=O)NC4=O)C3)[nH]c12 (stereo not shown) [Example 13, methyl 2-(6,8-dioxo-2,7-diazaspiro[4.5]decan-2-yl)-1H-benzo[d]imidazole-7-carboxylate] | 96 |
| O=C1CCC2(CCN(c3ccc4ccccc4n3)C2)C(=O)N1 (stereo not shown) [Example 15, 2-(quinolin-2-yl)-2,7-diazaspiro[4.5] decane-6,8-dione] | 6 |
| Cn1c(N2CCC3(CCC(=O)NC3=O)C2)nc2ccccc21 (stereo not shown) [Example 19, 2-(1-methyl-1H-benzo[d]imidazol-2-yl)-2,7-diazaspiro[4.5] decane-6,8-dione] | 30 |
| O=C1CCC2(CCN(c3nc4cnccc4s3)C2)C(=O)N1 (stereo not shown) [Example 20, 2-(thiazolo[4,5-c]pyridin-2-yl)-2,7-diazaspiro[4.5] decane-6,8-dione] | 6 |
| COC(=O)c1ccc2nc(N3CCC4(CCC(=O)NC4=O)C3)sc2c1 (stereo not shown) [Example 21, methyl 2-(6,8-dioxo-2,7-diazaspiro [4.5]decan-2-yl)benzo[d]thiazole-6-carboxylate] | 8 |
| COC(=O)c1csc(N2CCC3(CCC(=O)NC3=O)C2)n1 (stereo not shown) [Example 22, methyl 2-(6,8-dioxo-2,7-diazaspiro[4.5]decan-2-yl)thiazole-4-carboxylate] | 44 |
| COC(=O)c1cnc(N2CCC3(CCC(=O)NC3=O)C2)s1 (stereo not shown) [Example 23, methyl 2-(6,8-dioxo-2,7-diazaspiro[4.5]decan-2-yl)thiazole-5-carboxylate] | 8 |
| CC(C)(C)OC(=O)c1ccc(N2CCC3(CCC(=O)NC3=O)C2)nc1 (stereo not shown) [Example 24, tert-butyl 6-(6,8-dioxo-2,7-diazaspiro[4.5]decan-2-yl) nicotinate] | 2 |
| O=C1CCC2(CCN(C(=O)c3cccc4c3CC(=O)N4)C2)C(=O)N1 (stereo not shown) [Example 27, 2-(2-oxoindoline-4-carbonyl)-2,7-diazaspiro[4.5] decane-6,8-dione] | 47 |
| COC(=O)c1ccc(C(=O)N2CCC3(CCC(=O)NC3=O)C2)cc1 (stereo not shown) [Example 28, methyl 4-(6,8-dioxo-2,7-diazaspiro[4.5]decane-2-carbonyl) benzoate] | 13 |
| O=C1CCC2(CCN(C(=O)c3ccc4scnc4c3)C2)C(=O)N1 (stereo not shown) [Example 29, 2-(benzo[d]thiazole-5-carbonyl)-2,7-diazaspiro[4.5] decane-6,8-dione] | < 1 |
| O=C1CCC2(CCN(c3ccc([N+](=O)[O-])cn3)C2)C(=O)N1 (stereo not shown) [Example 30, 2-(5-nitropyridin-2-yl)-2,7-diazaspiro [4.5]decane-6,8-dione] | 1 |
| COC(=O)c1cccc(N2CCC3(CCC(=O)NC3=O)C2)n1 (stereo not shown) [Example 32, methyl 6-(6,8-dioxo-2,7diazaspiro[4.5]decan-2-yl)picolinate] | 1 |

| Compound | Kd [nM] |
| --- | --- |
| CC(=O)N1CCc2c(C(=O)N3CCC4(CCC(=O)NC4=O)C3)cccc21 (stereo not shown) [Example 35, 2-(1-acetylindoline-4-carbonyl)-2,7-diazaspiro[4.5] decane-6,8-dione] | < 1 |
| O=C1CCC2(CCN(C(=O)c3ccccc3)C2)C(=O)N1 (stereo not shown) [Example 36, 2-benzoyl-2,7-diazaspiro[4.5] decane-6,8-dione] | < 1 |
| CC(=O)Nc1cccc(C(=O)N2CCC3(CCC(=O)NC3=O)C2)c1 (stereo not shown) [Example 37, N-(3-(6,8-dioxo-2,7-diazaspiro[4.5]decane-2-carbonyl)phenyl)acetamide] | 6 |
| O=C1CCC2(CCN(C(=O)c3cccc4[nH]ncc34)C2)C(=O)N1 (stereo not shown) [Example 38, 2-(1H-indazole-4-carbonyl)-2,7-diazaspiro[4.5] decane-6,8-dione] | 84 |
| O=C1CCC2(CCN(C(=O)c3cccc4c3CCN4)C2)C(=O)N1 (stereo not shown) [Example 40, 2-(indoline-4-carbonyl)-2,7-diazaspiro[4.5] decane-6,8-dione] | 6 |
| O=C1CCC2(CCN(C(=O)c3ccc4c(c3)NCC4)C2)C(=O)N1 (stereo not shown) [Example 41, 2-(indoline-6-carbonyl)-2,7-diazaspiro[4.5] decane-6,8-dione] | 75 |
| CC(=O)N1CCc2ccc(C(=O)N3CCC4(CCC(=O)NC4=O)C3)cc21 (stereo not shown) [Example 42, 2-(1-acetylindoline-6-carbonyl)-2,7-diazaspiro[4.5] decane-6,8-dione] | 8 |
| O=C1CCC2(CCN(C(=O)c3coc4ccccc34)C2)C(=O)N1 (stereo not shown) [Example 44, 2-(benzofuran-3-carbonyl)-2,7-diazaspiro[4.5] decane-6,8-dione] | 9 |
| O=C1CCC2(CCN(C(=O)c3cnn4ccccc34)C2)C(=O)N1 (stereo not shown) [Example 45, 2-(pyrazolo[1,5-a]pyridine-3-carbonyl)-2,7-diazaspiro[4.5] decane-6,8-dione] | < 1 |
| O=C1CCC2(CCN(C(=O)c3ccc4ncoc4c3)C2)C(=O)N1 (stereo not shown) [Example 46, 2-(benzo[d]oxazole-6-carbonyl)-2,7-diazaspiro[4.5] decane-6,8-dione] | 10 |
| O=C1CCC2(CCN(C(=O)c3ccc4c(c3)CCN4)C2)C(=O)N1 (stereo not shown) [Example 47, 2-(indoline-5-carbonyl)-2,7-diazaspiro[4.5] decane-6,8-dione] | 4 |
| CC(=O)Nc1nc2cc(C(=O)N3CCC4(CCC(=O)NC4=O)C3)ccc2s1 (stereo not shown) [Example 50, N-(5-(6,8-dioxo-2,7-diazaspiro[4.5]decane-2-carbonyl)benzo[d]thiazol-2-yl)acetamide] | 45 |
| CC(=O)Nc1nc2ccc(C(=O)N3CCC4(CCC(=O)NC4=O)C3)cc2s1 (stereo not shown) [Example 51, N-(6-(6,8-dioxo-2,7-diazaspiro[4.5]decane-2-carbonyl)benzo[d]thiazol-2-yl)acetamide] | 94 |
| CC(=O)N1CCc2cc(C(=O)N3CCC4(CCC(=O)NC4=O)C3)ccc21 (stereo not shown) [Example 52, 2-(1-acetylindoline-5-carbonyl)-2,7-diazaspiro[4.5] decane-6,8-dione] | 41 |
| CC(C)(C)OC(=O)Nc1nc2cc(C(=O)N3CCC4(CCC(=O)NC4=O)C3)ccc2s1 (stereo not shown) [Example 53, tert-butyl (5-(6,8-dioxo-2,7-diazaspiro[4.5]decane-2-carbonyl)benzo[d]thiazol-2-yl)carbamate] | 6 |
| CC(C)(C)OC(=O)Nc1nc2ccc(C(=O)N3CCC4(CCC(=O)NC4=O)C3)cc2s1 (stereo not shown) [Example 54, tert-butyl (6-(6,8-dioxo-2,7-diazaspiro[4.5]decane-2-carbonyl)benzo[d]thiazol-2-yl)carbamate] | 4 |
| Nc1nc2ccc(C(=O)N3CCC4(CCC(=O)NC4=O)C3)cc2s1 (stereo not shown) [Example 55, 2-(2-aminobenzo [d]thiazole-6-carbonyl)-2,7-diazaspiro [4.5]decane-6,8-dione] | 26 |
| O=C1NC(=O)C2(CCN(C(=O)[C@H]3CCCc4ccccc43)CC2)N1 [Example 58, (S)-8-(1,2,3,4-tetrahydronaphthalene-1-carbonyl)-1,3,8-triazaspiro[4.5]decane-2,4-dione] | 4 |
| O=C1NC(=O)C2(CCN(C(=O)[C@@H]3CCCc4ccccc43)CC2)N1 [Example 59, (R)-8-(1,2,3,4-tetrahydronaphthalene-1-carbonyl)-1,3,8-triazaspiro[4.5]decane-2,4-dione] | 5 |
| O=C1NC(=O)C2(CCN(C(=O)c3ccccc3)CC2)N1 [Example 60, 8-benzoyl-1,3,8-triazaspiro[4.5]decane-2,4-dione] | 2 |
| O=C1NC(=O)C2(CCN(c3nc4ccccc4s3)CC2)N1 [Example 61, 8-(benzo[d]thiazol-2-yl)-1,3,8-triazaspiro[4.5]decane-2,4-dione] | 2 |
| O=C1NC(=O)C2(CCN(C(=O)c3coc4ccccc34)CC2)N1 [Example 66, 8-(benzofuran-3-carbonyl)-1,3,8-triazaspiro[4.5] decane-2,4-dione] | 1 |
| O=C1NC(=O)C2(CCN(C(=O)c3cnn4ccccc34)CC2)N1 [Example 67, 8-(pyrazolo[1,5-a]pyridine-3-carbonyl)-1,3,8-triazaspiro[4.5] decane-2,4-dione] | < 1 |
